One assay deals with rat lung grafts. The experiment in a line: Rat orthotopic left lung transplantation of donor-pretreated lungs: graft function, edema, histology, cell infiltration. Conditions: for T-cell (CD3+) infiltration / macrophage (CD68+) infiltration / polymorphonuclear neutrophil (PMN) infiltration: 2 h after reperfusion; for T-cell (CD3+) infiltration / macrophage (CD68+) infiltration / wet-to-dry (W/D) ratio / polymorphonuclear neutrophil (PMN) infiltration: vs control; for congestion, swollen alveolar walls, secretions in the airways (H&E) / wet-to-dry (W/D) ratio / PaO2/FiO2 (P/F) ratio: 2 h after transplantation, donor pre-treatment; for PaO2/FiO2 (P/F) ratio: vs control lung grafts; for polymorphonuclear neutrophil (PMN) infiltration: naphthol staining. It is filed as in vivo. An excerpt: Study design. To investigate the stability of eGC in lung grafts and its potential influence on graft function and quality after reperfusion, we established rat models with damaged or preserved lung eGC and performed orthotopic, single, left-lung transplantation or EVLP using the lungs from these rats. Animals were randomly assigned 4 different groups; (1) native lungs (normal control), (2) Control: lungs with eGC damage, (3) Heparin: lungs with eGC preserved by heparin, and (4) NAH: lungs with eGC preserved by NAH. Shedding of the eGC was induced in vivo by donor systemic ischemia. After 1 h of ischemia in vivo, lungs were procured in a standardized fashion for lung transplantation then either directly transplanted or subjected to EVLP and assessed biologically. Native lungs were not subjected to any insult.
Models of lungs with damaged or preserved eGC and rat orthotopic left lung transplantation. Rats were sedated with 4% isoflurane via inhalation for tracheostomy and then placed on a ventilator. They received 5% isoflurane with 100% O2 via inhalation through the ventilator for 15 min to induce a deep state of anesthesia that causes arrest of spontaneous breathing. The rats were disconnected from the ventilator 5 min after intravenous administration of heparin (300 IU), a heparin derivative without anti-coagulant properties (300 μg; N-acetyl heparin (NAH) (Millipore Sigma, Burlington, MA)), or saline (300 μl, control) through the jugular vein. Cardiac activity and blood oxygen saturation were monitored after disconnection from ventilator until cardiac arrest. One hour after induction of ischemia, a median thoracotomy was performed, and blood was flushed from the lungs with cold, low potassium dextran solution (PERFADEX; XVIVO Perfusion AB) through the pulmonary artery. Then, the heart-lung bloc was isolated and stored in cold PERFADEX for 6 h before transplantation.
Orthotopic single-lung transplantation of the left lung was performed using the cuff method. Two hours after reperfusion, the naive lung was clamped, 100% 02 was administered for 5 min through a ventilator, and the recipient's blood was sampled from the graft pulmonary vein for blood gas analysis.
Wet-to-dry (W/D) weight ratio. The weight of the lung tissues was measured immediately after collection (wet weight). The lung tissue was then placed into a 60° C. oven to dry for 72 h. Tissues were weighed to deter-mine the dry weight, and the wet-to-dry ratio was calculated.
Tissue staining and histopathological analysis. Formalin-fixed, paraffin-embedded lung tissues collected 2 h after transplantation were sectioned to 4-μm thickness and stained with hematoxylin and eosin. The sections were also stained for immunofluorescent imaging using primary antibodies for CD3 (Invitrogen), CD68 (Invitrogen), or syndecan-1 (Santa Cruz), and Hoechst 33342 dye for nuclear staining. Primary antibody was detected by secondarily Cy5-conjugated goat anti-rabbit IgG (Invitrogen) and Cy3-conjugated goat anti-mouse IgG (Millipore Sigma).
Polymorphonuclear neutrophils (PMNs) were stained using a naphthol AS-D chloroacetate esterase staining kit (Millipore Sigma) and identified by nuclear morphology staining in bright red. Stained slides were scanned with a whole-slide image scanner (Axio Scan.Z1; Carl Zeiss) and analyzed with digital image processing software (ZEN lite blue edition; Carl Zeiss). Stained cells were counted by two investigators with the identity of the samples masked.

The subject of assay [1] is syndecan-1, glycosaminoglycans (GAGs). The experiment in a line: Glycocalyx components in lung grafts 2 h after transplantation (western blot, DMMB). The note with it: vs control; for GAGs remaining in the lung tissue: DMMB assay, 2 h after transplant; for syndecan-1 protein expression in the plasma membrane: western blot, 2 h after transplantation. The class given is in vivo, rat. The procedure: Western blotting. Whole cell lysate was isolated with 2% SDS buffer (2% SDS, 50 mM Tris-HCl pH 6.8, 10% glycerol) supplemented with protease inhibitors (Sigma-Aldrich). Membrane protein fractions were obtained with the Mem-PER Plus Membrane Protein Extraction Kit (Thermo Scientific) following manufacturer's instructions. Proteins were resolved on 10% SDS-PAGE followed by transfer to 0.2 μm nitrocellulose membranes (Bio-Rad Laboratories, Hercules, CA, USA). Membranes were blocked with 5% non-fat milk at room temperature for 2 h and then incubated with the following primary antibodies at 4° C. overnight: anti-syndecan-1 (1:1000; Santa Cruz Biotechnology, Inc., Dallas, Tx, USA), anti-heparanase-1 (1:1000; Boster Biological, Pleasanton, CA, USA), anti-VE-Cadherin (1:1000; Abcam), anti-HSP90 (1:1000; Abcam) and anti-@-actin (1:50,000; Sigma-Aldrich). Membranes were then incubated with either anti-mouse (1:5000) or anti-rabbit (1:3000) horse-radish peroxidase (HRP)-conjugated polyclonal secondary antibody (Abcam, Cambridge, MA, USA), or IRDye 800CW anti-rabbit IgG or 680CW anti-mice secondary antibody (LI-COR Biosciences, Lincoln, NE, USA) at room temperature for 2 h. Proteins were visualized using an enhanced chemiluminescence kit (Abcam), and protein bands were imaged and analyzed using Image Lab software (Version 6.0; Bio-Rad Laboratories, Inc.) or Odyssey 9120 Infrared Imaging System (LI-COR Biosciences).
Determination of glycocalyx components in rat lung grafts. For rat lung tissue, syndecan-1 released into the perfusate during EVLP was measured with a rat-specific ELISA (Immunotag Rat SDC1 (Syndecan-1) ELISA, G-Biosciences, St. Louis, MO). Glycocalyx glycosaminoglycans (GAGs) were quantitated using the 1,9-dimethylmethylene blue (DMMB, Millipore Sigma) method with modifications. A 1 L solution of DMMB (pH˜3.0) was prepared by dissolving 16 mg DMMB in distilled H2O containing 3.04 g/A glycine, 1.6 g/A NaCl and 95 ml 0.1 M acetic acid. Briefly, 1 ml DMMB solution was added to 20 μl lung tissue lysate then incubated at room temperature for 1 h on a tube rotator. The tubes were then centrifuged at 14,000 rpm for 15 min at 4° C. Supernatants were carefully decanted, 200 μL sodium lauryl sulfate buffer (2.08 mM) was added to each pellet, and the tubes were vortexed until GAG-DMMB pellets were no longer visible. GAG content in each sample was measured spectrophotometrically at 656 nm.
In general terms: Immunoblotting shows a protein as a band on a membrane.

Take N-acetyl heparin [NAH]: in the assay with rat lung grafts, the “T-cell (CD3+) infiltration” value is on record as “significantly reduced”; the “macrophage (CD68+) infiltration” value is “significantly reduced”; the “congestion, swollen alveolar walls, secretions in the airways (H&E)” value was “not observed”; the “wet-to-dry (W/D) ratio” value is reported as “lower”. Moreover, in the assay with rat lung grafts, the “PaO2/FiO2 (P/F) ratio” value is on record as “significantly higher” and the “polymorphonuclear neutrophil (PMN) infiltration” value is on record as “significantly reduced”. In assay [1], the “GAGs remaining in the lung tissue” value is on record as “significantly more GAGs remained” and the “syndecan-1 protein expression in the plasma membrane” value is “markedly higher”.

As to heparin, in the assay on rat lung grafts, the “T-cell (CD3+) infiltration” value is “significantly reduced”; the “macrophage (CD68+) infiltration” value is on record as “significantly reduced”; the “congestion, swollen alveolar walls, secretions in the airways (H&E)” value is recorded as “not observed”; the “wet-to-dry (W/D) ratio” value is on record as “lower”. In the assay on rat lung grafts, the “PaO2/FiO2 (P/F) ratio” value was “significantly higher” and the “polymorphonuclear neutrophil (PMN) infiltration” value is listed as “significantly reduced”. In assay [1], the “GAGs remaining in the lung tissue” value is reported as “significantly more GAGs remained” and the “syndecan-1 protein expression in the plasma membrane” value was “markedly higher”.
